In ChEMBL document CHEMBL1201862, “PubChem BioAssay data set” (2004):
“And” between values parts separate entries of the source, which are not always exact repeats. Equal values may be shown once.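 Cultured in 96-well plates, cells were exposed to test compound for 48 hours across five concentrations. The concentration for 50% growth inhibition is given as GI50.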 The source made the active and inactive calls. No stated cut-off is given here; in the data, active = GI50 up to about 1.1 µM and inactive = higher.

How the values were obtained:
Experiment in all cases: DTP human tumour cell line panel, 48 h
HL-60 = tested on: HL-60
OVCAR-3 = tested on: OVCAR-3
NCI-H522 = tested on: NCI-H522
HCC 2998 = tested on: HCC 2998
HOP-18 = tested on: HOP-18
SF-539 = tested on: SF-539
EKVX = tested on: EKVX
SN12C = tested on: SN12C
MOLT-4 = tested on: MOLT-4
CAKI-1 = tested on: CAKI-1
HCT-116 = tested on: HCT-116
HT-29 = tested on: HT-29
CCRF-CEM = tested on: CCRF-CEM
K562 = tested on: K562
Malme-3M = tested on: Malme-3M
SF-295 = tested on: SF-295
SK-MEL-5 = tested on: SK-MEL-5
KM12 = tested on: KM12
ACHN = tested on: ACHN
SF-268 = tested on: SF-268
SR = tested on: SR
M14 = tested on: M14
UO-31 = tested on: UO-31
LOX IMVI = tested on: LOX IMVI
OVCAR-8 = tested on: OVCAR-8
A549 = tested on: A549
NCI-H226 = tested on: NCI-H226
TK-10 = tested on: TK-10
NCI-H460 = tested on: NCI-H460
786-0 = tested on: 786-0
OVCAR-5 = tested on: OVCAR-5
SK-MEL-28 = tested on: SK-MEL-28
COLO 205 = tested on: COLO 205
UACC-257 = tested on: UACC-257
SNB-75 = tested on: SNB-75
NCI-H23 = tested on: NCI-H23
SW-620 = tested on: SW-620
DLD-1 = tested on: DLD-1
M19-MEL = tested on: M19-MEL
SNB-19 = tested on: SNB-19
OVCAR-4 = tested on: OVCAR-4
DMS-273 = tested on: DMS-273
HOP-62 = tested on: HOP-62
DMS-114 = tested on: DMS-114
RPMI-8226 = tested on: RPMI-8226
SNB-78 = tested on: SNB-78
HOP-92 = tested on: HOP-92
UACC-62 = tested on: UACC-62
A498 = tested on: A498
SK-OV-3 = tested on: SK-OV-3
LXFL 529 = tested on: LXFL 529
RXF 393 = tested on: RXF 393
KM-20L2 = tested on: KM-20L2
IGROV-1 = tested on: IGROV-1
SK-MEL-2 = tested on: SK-MEL-2
HCT-15 = tested on: HCT-15
U-251 = tested on: U-251

## COc1cc(/C=C2\C(=O)N(C(=O)c3ccc(NC(C)=O)cc3)N=C2C)ccc1O
HL-60
  GI50: > 100 µM (inactive)
OVCAR-3
  GI50: > 100 µM (inactive)
NCI-H522
  GI50: > 100 µM (inactive)
HCC 2998
  GI50: > 100 µM (inactive)
HOP-18
  GI50: > 100 µM (inactive)
SF-539
  GI50: > 100 µM (inactive)
EKVX
  GI50: > 100 µM (inactive)
SN12C
  GI50: > 100 µM (inactive)
MOLT-4
  GI50: > 100 µM (inactive)
CAKI-1
  GI50: > 100 µM (inactive)
HCT-116
  GI50: > 100 µM (inactive)
HT-29
  GI50: > 100 µM (inactive)
CCRF-CEM
  GI50: > 100 µM (inactive)
K562
  GI50: > 100 µM (inactive)
Malme-3M
  GI50: > 100 µM (inactive)
SF-295
  GI50: > 100 µM (inactive)
SK-MEL-5
  GI50: > 100 µM (inactive)
KM12
  GI50: > 100 µM (inactive)
ACHN
  GI50: > 100 µM (inactive)
SF-268
  GI50: > 100 µM (inactive)
SR
  GI50: > 100 µM (inactive)
M14
  GI50: > 100 µM (inactive)
UO-31
  GI50: > 100 µM (inactive)
LOX IMVI
  GI50: > 100 µM (inactive)
OVCAR-8
  GI50: > 100 µM (inactive)
A549
  GI50: > 100 µM (inactive)
NCI-H226
  GI50: > 100 µM (inactive)
TK-10
  GI50: > 100 µM (inactive)
NCI-H460
  GI50: > 100 µM (inactive)
786-0
  GI50: > 100 µM (inactive)
OVCAR-5
  GI50: > 100 µM (inactive)
SK-MEL-28
  GI50: > 100 µM (inactive)
COLO 205
  GI50: > 100 µM (inactive)
UACC-257
  GI50: > 100 µM (inactive)
SNB-75
  GI50: > 100 µM (inactive)
NCI-H23
  GI50: > 100 µM (inactive)
SW-620
  GI50: > 100 µM (inactive)
DLD-1
  GI50: > 100 µM (inactive)
M19-MEL
  GI50: > 100 µM (inactive)
SNB-19
  GI50: > 100 µM (inactive)
OVCAR-4
  GI50: > 100 µM (inactive)
DMS-273
  GI50: > 100 µM (inactive)
HOP-62
  GI50: > 100 µM (inactive)
DMS-114
  GI50: > 100 µM (inactive)
RPMI-8226
  GI50: > 100 µM (inactive)
SNB-78
  GI50: > 100 µM (inactive)

## Cc1ccc(S(=O)(=O)ON=C2CC(c3ccccc3)N(C)C(c3ccccc3)C2)cc1 (centres undefined)
OVCAR-3
  GI50: 19.5 µM (inactive) and 20 µM (inactive)
HOP-92
  GI50: 15.9 µM (inactive) and 15.3 µM (inactive)
NCI-H522
  GI50: 14.2 µM (inactive) and 12.1 µM (inactive)
UACC-62
  GI50: 16.1 µM (inactive)
HCC 2998
  GI50: 16.6 µM (inactive)
SF-539
  GI50: 17.1 µM (inactive)
EKVX
  GI50: 36.2 µM (inactive) and 35.2 µM (inactive)
SN12C
  GI50: 23.6 µM (inactive)
MOLT-4
  GI50: 17.9 µM (inactive) and 20.6 µM (inactive)
CAKI-1
  GI50: 24.6 µM (inactive) and 15.6 µM (inactive)
A498
  GI50: 24.3 µM (inactive)
HCT-116
  GI50: 15.9 µM (inactive) and 14.2 µM (inactive)
HT-29
  GI50: 20 µM (inactive) and 20.9 µM (inactive)
CCRF-CEM
  GI50: 18.5 µM (inactive) and 25.2 µM (inactive)
Malme-3M
  GI50: 25.5 µM (inactive) and 21.1 µM (inactive)
SF-295
  GI50: 25.9 µM (inactive) and 25.1 µM (inactive)
SK-OV-3
  GI50: 22.5 µM (inactive) and 21.8 µM (inactive)
SK-MEL-5
  GI50: 17.4 µM (inactive) and 16.3 µM (inactive)
KM12
  GI50: 16.4 µM (inactive)
ACHN
  GI50: 19.8 µM (inactive)
SF-268
  GI50: 22.8 µM (inactive) and 23.4 µM (inactive)
SR
  GI50: 16.9 µM (inactive) and 21.5 µM (inactive)
M14
  GI50: 19.4 µM (inactive) and 17.2 µM (inactive)
UO-31
  GI50: 15.6 µM (inactive) and 16.9 µM (inactive)
LOX IMVI
  GI50: 13.5 µM (inactive) and 14 µM (inactive)
OVCAR-8
  GI50: 17.6 µM (inactive) and 16.9 µM (inactive)
A549
  GI50: 23.2 µM (inactive) and 20.6 µM (inactive)
NCI-H226
  GI50: 28.7 µM (inactive) and 23.6 µM (inactive)
TK-10
  GI50: 21.8 µM (inactive) and 20.6 µM (inactive)
NCI-H460
  GI50: 19.2 µM (inactive) and 20.7 µM (inactive)
786-0
  GI50: 21.2 µM (inactive) and 22.9 µM (inactive)
LXFL 529
  GI50: 15.6 µM (inactive) and 16.6 µM (inactive)
OVCAR-5
  GI50: 20.8 µM (inactive)
SK-MEL-28
  GI50: 23.8 µM (inactive) and 22.9 µM (inactive)
COLO 205
  GI50: 15.6 µM (inactive) and 14.8 µM (inactive)
UACC-257
  GI50: 18.9 µM (inactive) and 19.3 µM (inactive)
SNB-75
  GI50: 23.6 µM (inactive) and 26 µM (inactive)
RXF 393
  GI50: 20.2 µM (inactive) and 18.8 µM (inactive)
KM-20L2
  GI50: 23 µM (inactive) and 18.4 µM (inactive)
NCI-H23
  GI50: 25.2 µM (inactive) and 19.9 µM (inactive)
IGROV-1
  GI50: 23.5 µM (inactive) and 21.4 µM (inactive)
SW-620
  GI50: 17.9 µM (inactive) and 15.5 µM (inactive)
M19-MEL
  GI50: 20.8 µM (inactive) and 21.7 µM (inactive)
SNB-19
  GI50: 25.8 µM (inactive) and 32.7 µM (inactive)
OVCAR-4
  GI50: 18.7 µM (inactive) and 17.4 µM (inactive)
SK-MEL-2
  GI50: 15 µM (inactive)
DMS-273
  GI50: 20.7 µM (inactive) and 19.5 µM (inactive)
HCT-15
  GI50: 16.7 µM and 18.5 µM
U-251
  GI50: 23.3 µM (inactive) and 21.1 µM (inactive)
HOP-62
  GI50: 29 µM (inactive) and 29.8 µM (inactive)
DMS-114
  GI50: 14.7 µM (inactive)
RPMI-8226
  GI50: 18.3 µM (inactive)
SNB-78
  GI50: 19.1 µM (inactive) and 23.1 µM (inactive)
